{"source": "ChEMBL document CHEMBL5728268", "about": "“Substituted tricyclic heterocyclic compounds and use thereof” (2021)", "data": [{"target": "Tyrosine-protein kinase JAK2 (Homo sapiens, UniProt O60674)", "sequence (O60674 whole entry)": "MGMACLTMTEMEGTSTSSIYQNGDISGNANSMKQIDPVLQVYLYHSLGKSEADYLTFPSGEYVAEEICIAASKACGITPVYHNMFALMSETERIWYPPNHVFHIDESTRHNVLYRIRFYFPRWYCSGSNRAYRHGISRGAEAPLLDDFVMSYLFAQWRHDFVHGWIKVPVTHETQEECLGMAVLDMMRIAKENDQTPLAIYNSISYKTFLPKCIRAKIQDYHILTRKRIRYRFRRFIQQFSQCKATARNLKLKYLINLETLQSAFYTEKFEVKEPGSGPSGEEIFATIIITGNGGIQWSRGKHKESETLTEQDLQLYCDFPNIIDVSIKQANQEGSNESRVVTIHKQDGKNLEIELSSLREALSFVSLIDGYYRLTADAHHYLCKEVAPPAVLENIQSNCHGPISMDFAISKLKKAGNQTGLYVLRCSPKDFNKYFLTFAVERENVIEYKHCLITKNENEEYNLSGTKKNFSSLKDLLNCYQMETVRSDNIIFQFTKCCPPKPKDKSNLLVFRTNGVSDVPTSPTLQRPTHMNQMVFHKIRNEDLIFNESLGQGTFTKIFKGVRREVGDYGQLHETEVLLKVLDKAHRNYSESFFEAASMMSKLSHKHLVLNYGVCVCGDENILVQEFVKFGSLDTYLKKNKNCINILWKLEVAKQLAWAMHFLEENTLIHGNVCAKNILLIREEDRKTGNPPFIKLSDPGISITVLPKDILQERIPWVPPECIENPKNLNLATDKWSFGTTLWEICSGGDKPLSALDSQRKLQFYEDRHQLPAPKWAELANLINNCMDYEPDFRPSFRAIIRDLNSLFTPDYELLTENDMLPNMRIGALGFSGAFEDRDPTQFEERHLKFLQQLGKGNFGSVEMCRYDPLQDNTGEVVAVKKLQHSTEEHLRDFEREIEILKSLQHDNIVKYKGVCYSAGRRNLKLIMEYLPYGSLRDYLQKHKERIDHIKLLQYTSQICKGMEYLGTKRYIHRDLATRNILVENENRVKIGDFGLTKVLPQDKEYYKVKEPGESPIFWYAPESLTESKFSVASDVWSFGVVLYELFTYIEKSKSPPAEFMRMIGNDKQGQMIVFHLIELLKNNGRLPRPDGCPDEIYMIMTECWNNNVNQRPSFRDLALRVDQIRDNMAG", "experiment": "JAK2 Assay: JAK2 (5-20 mU diluted in 50 mM Tris pH 7.5, 0.1 mM EGTA, 0.05% 0-mercaptoethanol, 1 mg/ml BSA) is assayed against PDKtide ([…]-[…]) in a final volume of 25.5 μl containing 50 mM Tris pH 7.5, 0.1 mM EGTA, 0.05% 0-mercaptoethanol, 100 μM substrate peptide, 10 mM magnesium acetate and 0.005 mM [33P-γ-ATP] (50-1000 cpm/pmole) and incubated for 30 min at room temperature Assays are stopped by addition of 5 μl of 0.5 M (3%) orthophosphoric acid and then harvested onto P81 Unifilter plates with a wash buffer of 50 mM orthophosphoric acid.", "units": {"IC50": "µM"}, "values": [{"smiles": "CC(C)n1ncc2c1CN(C1CCOCC1)c1nccc3[nH]nc-2c13", "IC50": 2.1}, {"smiles": "CCn1ncc2c1CN(C1CCOCC1)c1nccc3[nH]nc-2c13", "IC50": 1.5}, {"smiles": "Cc1cc2c(cn1)CN(C1CCOCC1)c1nccc3[nH]nc-2c13", "IC50": 0.89}, {"smiles": "Cn1ncc2c1CN(C1CCOCC1)c1nccc3[nH]nc-2c13", "IC50": 0.92}, {"smiles": "CCn1ncc2c1CN(C1CCN(C(C)C)CC1)c1nccc3[nH]nc-2c13", "IC50": 5.4}, {"smiles": "CC(C)N1CCC(N2Cc3c(cnn3C)-c3n[nH]c4ccnc2c34)CC1", "IC50": 4.5}, {"smiles": "CCc1cc2c(cn1)CN(C1CCOCC1)c1nccc3[nH]nc-2c13", "IC50": 1.7}, {"smiles": "Fc1ccc2c(c1)-c1n[nH]c3ccnc(c13)N(C1CCOCC1)C2", "IC50": 0.9}, {"smiles": "c1cc2[nH]nc3c2c(n1)N(C1CCCC1)CCC3", "IC50": 6.6}]}]}
